Source: the CheMixHub ionic liquid set
± gives the uncertainty stated by the source.

Test: xn = mol fraction of the nth substance listed
Settings: for viscosity: 101 kPa

CC[n+]1ccn(C)c1.N#C[N-]C#N + CCO + O
viscosity [mPa·s]
Settings	298.15 K	313.15 K	328.15 K	343.15 K
x2 = 0.0957, x3 = 0.7595	3.15 ± 0.13	2.21 ± 0.09	–	–
x2 = 0.1156, x3 = 0.8359	2.25 ± 0.09	1.52 ± 0.06	–	–
x2 = 0.1191, x3 = 0.3486	6.67 ± 0.27	4.77 ± 0.2	3.64 ± 0.15	2.85 ± 0.12
x2 = 0.2007, x3 = 0.7083	2.87 ± 0.12	2 ± 0.08	1.42 ± 0.06	1.08 ± 0.04
x2 = 0.2484, x3 = 0.6015	3.39 ± 0.14	2.36 ± 0.1	1.74 ± 0.07	1.34 ± 0.06
x2 = 0.2507, x3 = 0.6986	2.65 ± 0.11	1.76 ± 0.07	1.25 ± 0.05	0.94 ± 0.04
x2 = 0.2881, x3 = 0.404	4.63 ± 0.19	3.33 ± 0.14	2.52 ± 0.11	2.02 ± 0.08
x2 = 0.379, x3 = 0.1385	5.89 ± 0.25	4.31 ± 0.18	3.3 ± 0.14	2.63 ± 0.11
x2 = 0.4202, x3 = 0.3032	4 ± 0.17	2.92 ± 0.12	2.23 ± 0.1	1.77 ± 0.08
x2 = 0.4889, x3 = 0.4093	2.77 ± 0.12	1.95 ± 0.08	–	–
x2 = 0.6949, x3 = 0.2046	2.27 ± 0.1	–	–	–

O + CCOS(=O)(=O)[O-].CC[n+]1ccn(C)c1
Settings	electrical conductivity [S/m]
298.15 K, 101.3 kPa, x1 = 1	0.00264 ± 0.00026

CC1COC(=O)O1 (centres undefined) + CC[N+](CC)(CC)CC.F[B-](F)(F)F
x1 = 1
Settings	viscosity [mPa·s]
283.15 K	3.551 ± 0.051
298.15 K	2.531 ± 0.037
308.15 K	2.09 ± 0.031
313.15 K	1.918 ± 0.029

CCCC[n+]1ccccc1.[Br-] + CC[n+]1ccccc1.[Br-]
viscosity [mPa·s]
Settings	x2 = 0.085	x2 = 0.197	x2 = 0.269	x2 = 0.352	x2 = 0.52	x2 = 0.621	x2 = 0.689	x2 = 0.811	x2 = 0.903
353.1 K	–	–	–	–	93.7 ± 6.9	–	–	–	–
358.1 K	–	–	–	–	77.4 ± 7.2	–	–	–	–
363.1 K	–	–	–	86.2 ± 6.7	64.2 ± 4.9	53.8 ± 3.5	–	–	–
368.1 K	–	–	80.4 ± 6.3	70.3 ± 5.9	53.7 ± 4	45.6 ± 3.2	–	–	–
373.1 K	–	–	65.3 ± 5.6	57.8 ± 4.7	45.1 ± 3.2	38.8 ± 2.6	–	–	–
378.1 K	–	–	53.5 ± 4.4	47.8 ± 3.7	38.1 ± 2.7	33.2 ± 2.2	30.3 ± 1.7	–	–
383.1 K	–	–	44.2 ± 3.5	39.9 ± 3	32.4 ± 2.2	28.6 ± 1.8	26.3 ± 1.6	–	–
388.1 K	45.3 ± 3.3	40.8 ± 2.6	36.8 ± 2.8	33.5 ± 2.4	27.7 ± 1.8	24.7 ± 1.5	22.9 ± 1.3	19.85 ± 0.99	–
393.1 K	37.4 ± 2.9	34.2 ± 2.5	30.9 ± 2.2	28.3 ± 2	23.9 ± 1.5	21.5 ± 1.3	20 ± 1.1	17.61 ± 0.92	–
398.1 K	31.1 ± 2.3	28.9 ± 2	26.2 ± 1.8	24.2 ± 1.6	20.7 ± 1.3	18.8 ± 1.1	17.59 ± 0.97	15.64 ± 0.8	14.32 ± 0.66
403.1 K	26.2 ± 1.9	24.7 ± 1.6	22.3 ± 1.5	20.8 ± 1.3	18 ± 1	16.46 ± 0.92	15.52 ± 0.83	13.94 ± 0.7	12.86 ± 0.61
408.1 K	22.2 ± 1.5	21.2 ± 1.3	19.2 ± 1.2	18 ± 1.1	15.75 ± 0.89	14.52 ± 0.78	13.76 ± 0.72	12.45 ± 0.61	11.57 ± 0.54
413.1 K	19.1 ± 1.2	18.5 ± 1.1	16.65 ± 0.99	15.64 ± 0.91	13.88 ± 0.75	12.86 ± 0.67	12.25 ± 0.62	11.17 ± 0.53	10.44 ± 0.48
418.1 K	16.53 ± 0.99	16.2 ± 0.89	14.56 ± 0.82	13.73 ± 0.76	12.29 ± 0.64	11.46 ± 0.57	10.97 ± 0.53	10.06 ± 0.47	9.44 ± 0.43
423.1 K	14.47 ± 0.81	14.35 ± 0.74	12.83 ± 0.69	12.15 ± 0.64	10.96 ± 0.54	10.26 ± 0.5	9.85 ± 0.47	9.08 ± 0.41	8.56 ± 0.38
428.1 K	12.78 ± 0.67	12.83 ± 0.62	11.41 ± 0.57	10.82 ± 0.54	9.83 ± 0.47	9.23 ± 0.43	8.89 ± 0.4	8.23 ± 0.36	7.77 ± 0.34
433.1 K	11.41 ± 0.55	–	10.23 ± 0.48	9.72 ± 0.45	8.87 ± 0.4	8.35 ± 0.37	8.06 ± 0.35	7.49 ± 0.32	7.08 ± 0.3
438.1 K	10.3 ± 0.46	10.55 ± 0.44	9.25 ± 0.41	8.8 ± 0.39	8.05 ± 0.35	7.59 ± 0.33	7.34 ± 0.31	6.83 ± 0.29	6.46 ± 0.27
443.1 K	9.39 ± 0.41	–	8.44 ± 0.26	8.03 ± 0.34	7.36 ± 0.32	6.93 ± 0.29	6.71 ± 0.29	6.25 ± 0.27	5.91 ± 0.25

O + CC[n+]1ccn(C)c1.CS(=O)(=O)[O-]
Settings	electrical conductivity [S/m]
298.15 K, 100 kPa, x1 = 1	0.00023 ± 1e-05

100 kPa, frequency 0.003 MHz, x2 = 0
Settings	electrical conductivity [S/m]
323.15 K	0.0005 ± 0.0001
333.15 K	0.0015 ± 0.0001

CC[n+]1ccn(C)c1.N#C[N-]C#N + CC[n+]1ccn(C)c1.F[B-](F)(F)F
298.1 K
Settings	viscosity [mPa·s]
x2 = 0.0448	17.2 ± 2.1
x2 = 0.6254	27.9 ± 4.3
x2 = 0.7856	31.4 ± 5.1
x2 = 0.9447	34.7 ± 6
